{
  "source": "patent US20230241205A1",
  "about": "“SARS-COV-2 IMMU[…] AND USES THEREOF” (TScan Therapeutics, Inc., priority 2020, published 2023)",
  "type_in_all_cases": "cell-based, human",
  "key": {"[1]": {"test_system": "memory CD8+ T cells of convalescent COVID-19 patients; target cells expressing only HLA-A*03:01", "conditions": "share of screened convalescent patients whose memory CD8+ T cells recognised the epitope; allele A*03"}, "OC43 and HKU1": {"test_system": "OC43 and HKU1", "assay": "T-Scan screen, reactivity to corresponding epitopes in OC43 and HKU1 ORFeomes", "conditions": "COVID-19 patient memory CD8+ T cells"}, "[2]": {"test_system": "memory CD8+ T cells of convalescent COVID-19 patients; target cells expressing only HLA-A*02:01", "conditions": "of 9 HLA-A*02:01 patients"}},
  "data": [
    {"substance": "KCYGVSPTKY", "values": [
      {"measurement": "% of Pts (Screen)", "setting": "[1]", "value": 100, "unit": "%"}
    ]},
    {"substance": "KLWAQCVQL", "values": [
      {"measurement": "reactivity to corresponding epitopes in OC43 and HKU1", "setting": "OC43 and HKU1", "value": "do not recognize them"}
    ]},
    {"substance": "ORF1ab aa 3881-3900: 20-aa segment of SARS-CoV-2 ORF1ab recognized in the T-Scan screen", "values": [
      {"measurement": "patients in whom epitope or region was identified / recognized", "setting": "[2]", "value": "7 of 9"}
    ]},
    {"substance": "S aa 261-280: 20-aa segment of SARS-CoV-2 S protein recognized in the T-Scan screen", "values": [
      {"measurement": "patients in whom epitope or region was identified / recognized", "setting": "[2]", "value": "7 of 9"}
    ]},
    {"substance": "SPRWYFYYL", "values": [
      {"measurement": "reactivity to corresponding epitopes in OC43 and HKU1", "setting": "OC43 and HKU1", "value": "all four of the patients"}
    ]}
  ]
}
